Source: patent US5480894A, “3-hydroxypyridin-4-one derivatives as chelating agents” (British Technology Group Limited, priority 1992, dated 1996)
Values joined by “and” are separate entries in the source; they are usually repeats but may differ in a detail not shown here. Equal values may be shown once. Read-outs that look alike come from different tables or passages of the source.

Experiment: Partition coefficient Kpart between n-octanol and aqueous tris hydrochloride
Type: physicochemical
Settings: n-octanol / aqueous tris hydrochloride (20 mM, pH 7.4); for logD: octanol/tris hydrochloride 20 mm
Procedure: The partition coefficients of four or five samples of each of the compounds of Examples 2 and 4 were measured using essentially the procedure described in Example 25 of UK Patent No. 2 136 807. For comparative purposes a similar measurement was made for the compound 1-(2-acetoxyethyl)-2-ethyl-3-hydroxypyridin-4-one which was prepared by an analogous procedure to that of Example 5 using acetyl chloride in place of isobutyryl chloride. The results obtained for the partition coefficient Kpart, being the ratio (concentration of compound in n-octanol)/concentration of compound in aqueous phase on partition between n-octanol and aqueous tris hydrochloride (20 mM, pH 7.4), are shown in the Table.

[1] = pH 7.4, mean of four or five samples, read-out: partition coefficient Kpart, Mean ± S.E. (converted)

SMILES | partition coefficient Kpart (concentration in n-octanol / concentration in aqueous phase), individual samples (individual samples 1-5) | logD [1] | partition coefficient Kpart (concentration in n-octanol / concentration in aqueous phase), individual samples (individual samples 1-5, listed as (CH3)2 CHCOO) | logD (individual samples 1-5, read-out: partition coefficient Kpart (concentration in n-octanol / concentration in aqueous phase), individual samples (converted)) | partition coefficient Kpart (concentration in n-octanol / concentration in aqueous phase), individual samples (individual samples 1-5, listed as (CH3)3 CCOO) | partition coefficient Kpart, Mean ± S.E. (mean of four or five samples)
CCc1c(O)c(=O)ccn1CCOC(C)=O [CH3 COO, 1-(2-acetoxyethyl)-2-ethyl-3-hydroxypyridin-4-one, reference compound] | 1.500 and 0.948 and 0.940 and 0.962 | 0.0366 |  |  |  | 
CCc1c(O)c(=O)ccn1CCOC(=O)C(C)C [Example 4, 2-ethyl-3-hydroxy-1-[2-(α-methylpropionyloxy)ethyl]pyridin-4-one] |  | 0.667 | 4.541 and 4.224 and 4.797 | 0.699 |  | 
CCc1c(O)c(=O)ccn1CCOC(=O)C(C)(C)C [Example 2, 2-ethyl-3-hydroxy-1-(2-pivaloyloxyethyl)pyridin-4-one] |  |  |  |  | 5.104 and 7.992 and 3.870 and 6.742 and 6.855 | 6.113 ± 1.622
